Results published in patent publication US20040029965A1, “Formulations for reducing or eliminating toxicity of enviromental hormones containing ursodeoxycholic acid” (priority 2000, published 2004).

Legend:
Assay type in all cases: in vivo
C57B1/6J mice [1] = experiment: Changes in body weight of mice after a single subcutaneous injection of TCDD; conditions: for Weight (body weight): at sacrifice
Protocol: (§1) Male C57B1/6J mice of 5 weeks old having the average weight of 18-22 g which had been bred in CRJ (Charles River in Japan) were purchased and used in this example as experimental animals. Those mice were acclimated under the constant breeding condition, i.e. the temperature of 24±1° C., the humidity of 60±10% and the light and darkness cycle of 12 hours, for one week and thereafter, utilized in the experiment.
The Experimental animals were supplied with Purina powdered feed (purchased from Hae Eun Trade) and supplied with water ad libitum. All the animals were weighed twice a week during experimentation.
(§2) 2,3,7,8-tetrachlorodibenzo-p-dioxin (TCDD) dissolved in toluene (purity of 95% or more as a result of gas chromatography analysis), manufactured by Chem. Services Inc. in USA, was volatilized with nitrogen to obtain powder. The obtained powder was dissolved in a mixed solvent containing acetone and corn oil with a volume ratio of 1:6. The resulting solution each containing 110, 27.5 and 6.9 μg/kg of TCDD was subcutaneously injected to mice at a volume of 5 ml per body weight. […] The mice were supplied with the feed from 10 days before (pre-administration) to 60 days after administration of TCDD (post-administration).
(§3) The results are expressed as Mean±Standard Deviation values. For statistical analysis of the body weight, feed and water uptake, biochemical findings, hematological findings and the weight of organ in an acute toxicity test, verification was performed by one way analysis of variance (ANOVA) in case of equal distribution. In case significance was recognized in ANOVA, the Student's t-test was performed in the levels of p<0.05 and p<0.01.

C57B1/6J mice [2] = experiment: Blood (serum) biochemical changes in mice by a single subcutaneous injection of TCDD
Protocol: as §1, §2
(§4) Upon completion of the experiment for 60 days, the experimental animals were fasted for 24 hours and anesthetized with ether. Then, they were abdominally incised and blood was gathered from abdominal vena cava. They were sacrificed by the release of blood. Liver, kidneys, testes and epididymides were extracted and all the extracted organs were weighed. Only the testes were separately kept and observed under optical and electron microscopes. For biochemical finding test, serum was separated from blood with a centrifuge and the separated serum was analyzed with an automated blood biochemical analyzer, Dimension (Dupont, USA). Blood was put to another blood gathering bottle and then, analyzed with an automated blood cell analyzer, Celldyn (Abbott, USA).
as §3
For biochemical findings in the serum, the levels of glucose (GLU), GOT, GPT, Triglyceride (TG), high density lipoprotein (HDL-C), low density lipoprotein (LDL-C) and alkaline phosphatase (ALP) in serum were measured and the results are shown in the following.

C57B1/6J mice [3] = experiment: Electron microscopy of testes (cellular microstructures); conditions: TCDD 27.5 μg/kg alone; FIG. 9
Protocol: as §2
as §4, with “(Abbott, USA). […]” for “(Abbott, USA).”

Clc1cc2c(cc1Cl)Oc1cc(Cl)c(Cl)cc1O2 [TCDD, 2,3,7,8-tetrachlorodibenzo-p-dioxin]
body weight (C57B1/6J mice [1]; TCDD 6.9 μg/kg alone, 0 day): 20.22 ± 0.31
body weight (C57B1/6J mice [1]; TCDD 6.9 μg/kg alone, 12 days): 22.27 ± 0.37
body weight (C57B1/6J mice [1]; TCDD 6.9 μg/kg alone, 22 days): 23.68 ± 0.36
body weight (C57B1/6J mice [1]; TCDD 6.9 μg/kg alone, 32 days): 24.37 ± 0.48
body weight (C57B1/6J mice [1]; TCDD 6.9 μg/kg alone, 39 days): 25.35 ± 0.66
body weight (C57B1/6J mice [1]; TCDD 6.9 μg/kg alone, 50 days): 27.03 ± 1.35
body weight (C57B1/6J mice [1]; TCDD 6.9 μg/kg alone, 59 days): 25.98 ± 1.44
Weight (body weight) (C57B1/6J mice [1]; TCDD 6.9 μg/kg alone): 22.96 ± 3.97 g
body weight (C57B1/6J mice [1]; TCDD 27.5 μg/kg alone, 0 day): 19.54 ± 0.22
body weight (C57B1/6J mice [1]; TCDD 27.5 μg/kg alone, 12 days): 20.91 ± 0.52
body weight (C57B1/6J mice [1]; TCDD 27.5 μg/kg alone, 22 days): 19.82 ± 1.14
body weight (C57B1/6J mice [1]; TCDD 27.5 μg/kg alone, 32 days): 18.54 ± 1.16
body weight (C57B1/6J mice [1]; TCDD 27.5 μg/kg alone, 39 days): 17.80 ± 1.40
body weight (C57B1/6J mice [1]; TCDD 27.5 μg/kg alone, 50 days): 16.74 ± 1.22
body weight (C57B1/6J mice [1]; TCDD 27.5 μg/kg alone, 59 days): 15.72 ± 1.17
Weight (body weight) (C57B1/6J mice [1]; TCDD 27.5 μg/kg alone): 16.18 ± 2.51 g
body weight (C57B1/6J mice [1]; TCDD 110.0 μg/kg alone, 0 day): 19.36 ± 0.31
body weight (C57B1/6J mice [1]; TCDD 110.0 μg/kg alone, 12 days): 19.96 ± 0.32
body weight (C57B1/6J mice [1]; TCDD 110.0 μg/kg alone, 22 days): 20.02 ± 0.47
body weight (C57B1/6J mice [1]; TCDD 110.0 μg/kg alone, 32 days): 19.84 ± 0.55
body weight (C57B1/6J mice [1]; TCDD 110.0 μg/kg alone, 39 days): 17.62 ± 1.14
ALP (C57B1/6J mice [2]; TCDD 6.9 μg/kg alone): 69.67 ± 8.80 IU/l
GLU (C57B1/6J mice [2]; TCDD 6.9 μg/kg alone): 96.00 ± 15.15 mg/dL
GOT (C57B1/6J mice [2]; TCDD 6.9 μg/kg alone): 55.16 ± 6.65 IU/l
GPT (C57B1/6J mice [2]; TCDD 6.9 μg/kg alone): 21.66 ± 5.39 IU/l
HDL-C (C57B1/6J mice [2]; TCDD 6.9 μg/kg alone): 39.29 ± 9.38 mg/dL
LDL-C (C57B1/6J mice [2]; TCDD 6.9 μg/kg alone): 24.43 ± 11.81 mg/dL
TG (C57B1/6J mice [2]; TCDD 6.9 μg/kg alone): 76.14 ± 14.03 mg/dL
ALP (C57B1/6J mice [2]; TCDD 27.5 μg/kg alone): 65.4 ± 19.05 IU/l
GLU (C57B1/6J mice [2]; TCDD 27.5 μg/kg alone): 28.20 ± 8.23 mg/dL
GOT (C57B1/6J mice [2]; TCDD 27.5 μg/kg alone): 230.40 ± 72.90 IU/l
GPT (C57B1/6J mice [2]; TCDD 27.5 μg/kg alone): 70.4 ± 23.46 IU/l
HDL-C (C57B1/6J mice [2]; TCDD 27.5 μg/kg alone): 21.80 ± 6.76 mg/dL
LDL-C (C57B1/6J mice [2]; TCDD 27.5 μg/kg alone): 43.80 ± 14.99 mg/dL
TG (C57B1/6J mice [2]; TCDD 27.5 μg/kg alone): 92.67 ± 16.79 mg/dL
heads of sperms, electron microphotograph (C57B1/6J mice [3]): Heads of sperms were frequently observed in cytoplasmic vacuoles of Sertoli cells
